Data as given in patent publication US20240197596A1, “COMPOUNDS USEFUL AS HAIR DYES” (National University of Singapore, priority 2021, published 2024).
Converted amounts (≈) assume the structure as drawn. “And” between values parts separate entries of the source, which are not always exact repeats. Equal values may be shown once. “Also recorded” adds a separate entry of the source.

Experiments:
THP-1 cells = test: MTT assay on THP-1 cells (CV75); format: cell-based, human; details: THP-1 cells, 24 h
Method: THP-1 (human acute monocytic leukaemia cell line) cell suspension was adjusted to 1×10^5 cells per well and seeded in 96-well plates. The plate was incubated at 37° C. with 5% CO2. After 24 h, 10 mM stock solutions of N1-N13 were prepared in autoclaved milli-Q water. A series of concentrations diluted in media was prepared and added to the wells. Each concentration was performed in 6-replicates, and seeded wells with only media and no compound were used as controls while wells with only media were used as blanks. The plate was incubated for 24 h, after which 100 μL of MTT reagent was added and the plate was further incubated for 3 h before adding 100 μL of DMSO. Subsequently, the plate was shaken for 20 min, and then absorbance at 570 nm was determined using a Bio-Tek plate reader. Percentage cell viability was calculated and CV75 values were determined.

Hair nuance test = test: Hair nuance test; design: key to L* / a* / b*: CIELAB L*, a*, b* coordinates; key to ΔE (total colour difference to natural hair): ΔE = √((L*−L0)²+(a*−a0)²+(b*−b0)²) vs untreated hair; details: for eventual colour of bleached hair, Type A: Type A (Non-oxidative) formulation; for eventual colour of bleached hair, Type B: Type B (Oxidative, H2O2) formulation; for eventual colour of bleached hair, Type C: Type C (Oxidative with coupler resorcinol) formulation
Method: 35 g of bleaching powder was mixed with 50 mL of developer then applied onto undyed black hair (wrapped in aluminium foil to enhance the bleaching process) and left on for 45 min. The hair was then rinsed with deionized water and shampoo and left to dry. This process was repeated twice.
Hair dye formulations were prepared from N1-N13 according to methods reported (New Journal of Chemistry. 2019; 43(41):16188-99), and with the compositions stated in Table 11 Bleached hair samples were immersed into the respective formulations for 20 min, then air dried for 20 min. Then they were shampooed twice and treated with conditioner for 5 min.
SkinColorCatch (Delfin Technologies Ltd, Kuopio, Finland) was used to measure CIELAB tristimulus L*, a* and b* values of the dyed hair samples and baseline L0, a0, b0 values from untreated hair. The difference in colour tone (ΔH) and the total colour difference (ΔE) were then derived from the values obtained with the equations below:
ΔH=√{square root over ((a*−a0)^2+(b*−b0)^2)}
ΔE=√{square root over ((L*−L0)^2+(a*−a0)^2+(b*−b0)^2)}

[1] = Thermodynamic solubility assay (modified shake flask, LC-MS/MS); details: Milli-Q water, pH=7, 25° C., 24 h, 3 separate determinations; for solubility at 24 h: 25 °C, pH 7, water, thermodynamic from solid
Method: The aqueous solubilities (pH=7) of these compounds were measured using the modified shake flask method and LC-MS/MS. Each hair dye was added into a 2 mL glass vial containing Milli-Q water (1 mL) to form the precipitates at 25° C. Then the mixture was subjected to a solubility-equilibrium stage. The vials were shaken at 300 rpm at 25° C. for 24 h. The precipitate was separated by centrifugation at 23,000 g for 20 min. Subsequently, 0.5 mL of supernatant was transferred into a 1 mL Eppendorf tube, and it was centrifuged again as mentioned above. The supernatant was then used for LC-MS/MS analysis.
The mass spectrometric analysis was performed by use of a AB SCIEX QTRAP 5500 tandem mass spectrometry (MS/MS) system (AB SCIEX, Framingham, MA, USA) operating in triple quadrupole positive mode (ESI+) equipped with an AB Sciex Turbo Ion Spray interface. Acquisition and analysis of data were performed with Analyst software ver. 1.4.2 (Applied Biosystems) which performed all chromatographic peak integration. For each hair dye, a standard curve consisting of four concentrations was established.
Solvent A was composed of 0.1% [v/v] formic acid in Milli-Q water while solvent B was composed of 0.1% [v/v] formic acid in acetonitrile. A mobile phase gradient pumped at 0.6 mL/min was used to elute the hair dyes from the column. The column was equilibrated for 1 min resulting in a total run time of 5 min. The injection volume was 5.0 μL for all derivatives. To prevent compound accumulation on the needle, 50% methanol in ACN was used as needle wash for 30 s per sample.

[2] = Skin permeation study, Franz diffusion cell; format: in vitro ADME, porcine; details: for Cumulative amount at 8th hour: 1% w/v in deionized water; for Cumulative amount at 8th hour / Cumulative amount comparison of PPD vs derivatives (times less than PPD) / Permeated through skin into receptor / Recovered in donor compartment / Recovered in skin / Recovered in skin outside diffusion area / Recovered in skin swabs / Recovered on parafilm and in washes: 8 h; for Permeated through skin into receptor / Recovered in donor compartment / Recovered in skin / Recovered in skin outside diffusion area / Recovered in skin swabs / Recovered on parafilm and in washes: mass balance; for recovery at 8 h, 1 % w/v: pig, end of 8 h, read-out: Total recovery (mean percentage parent compound recovery)
Method: In each Franz cell, a piece of pig ear skin prepared to a thickness of […] was clamped securely. 5 mL of PBS solution was added to the receiver compartment which was purged of air bubbles to ensure maximal contact of the skin piece with the solution. Donor solution was prepared by dissolving N1-N13 in deionized water at 1% w/v, and 900 μL was added to the donor compartment. The study was conducted for 8 h, and aliquots of 200 μL were removed from the receiver solution and topped up with fresh PBS at each timepoint of 15-minutes intervals for the first hour and every hour after that.
For mass balance, at the end of 8 h, skin pieces and swabs of the top and bottom surface of the skin were collected and stored in ACN for N1-N13 extraction. Donor solution and receiver solution were also collected.
The aliquot samples collected were subjected to 2-step extraction using 750 μL of dichloromethane (DCM). […] The solvent was dried using the TurboVap, and then reconstituted with 198 μL of 0.1% formic acid in 50% methanol in water and spiked with 2 μL of ANP (internal standard). The processed aliquot samples and mass balance samples were then sent for analysis using LC-MS/MS. The compounds' steady state fluxes and permeability coefficients were then calculated by fitting the solution to Fick's […] of diffusion at the steady state (linear part) of each experimental cumulative amount curve.

[3] = Type C (Oxidative with coupler resorcinol)

Row | SMILES | Permeated through skin into receptor [2] | Recovered in donor compartment [2] | Recovered in skin [2] | CV75 (concentration affording 75% cell viability), 1 × CV75 (THP-1 cells) | L* (Hair nuance test; Type A (Non-oxidative)) | a* (Hair nuance test; Type A (Non-oxidative)) | b* (Hair nuance test; Type A (Non-oxidative)) | ΔE (total colour difference to natural hair) (Hair nuance test; Type A (Non-oxidative)) | ΔH (difference in colour tone) (Hair nuance test; Type A (Non-oxidative)) | eventual colour of bleached hair, Type A (Hair nuance test) | L* (Hair nuance test; Type B (Oxidative)) | a* (Hair nuance test; Type B (Oxidative)) | b* (Hair nuance test; Type B (Oxidative)) | ΔH (difference in colour tone) (Hair nuance test; Type B (Oxidative)) | L* (Hair nuance test; [3]) | a* (Hair nuance test; [3]) | b* (Hair nuance test; [3]) | ΔE (total colour difference to natural hair) (Hair nuance test; [3]) | ΔH (difference in colour tone) (Hair nuance test; [3]) | eventual colour of bleached hair, Type C (Hair nuance test) | also measured
1 | COCCOc1cc(N)ccc1N [Compound N7, 2-(2-methoxyethoxy)benzene-1,4-diamine] | <0.001 % of applied compound dose | 97.5 % of applied compound dose | 0.03 % of applied compound dose | 44.6 µg/mL | 22 | 2.7 | 4.7 | 13.8 | 4.6 | dark brown colour shade; also recorded: Dark hazelnut | 19 | 4.7 | 3 | 5.1 | 12.3 | −0.7 | −4 | 6.0 | 5.0 | vibrant blue colours; also recorded: Navy blue | ΔE (total colour difference to natural hair) (Hair nuance test; Type B (Oxidative)): 11.2; eventual colour of bleached hair, Type B (Hair nuance test): Walnut brown; solubility at 24 h [1]: 65 to 72 mg/mL (≈ 357 to 395 mM); Solubility [1]: 62 mg/mL (≈ 340 mM); Cumulative amount at 8th hour [2]: 0.0080 μg/cm^2 and 0.008 μg/cm^2; Cumulative amount comparison of PPD vs derivatives (times less than PPD) [2]: 675.0; Recovered in skin outside diffusion area [2]: 0.007 % of applied compound dose; Recovered in skin swabs [2]: 0.09 % of applied compound dose; Recovered on parafilm and in washes [2]: 0.001 % of applied compound dose; recovery at 8 h, 1 % w/v [2]: 97 ± 1.49%
2 | N#CCOc1cc(N)ccc1N [Compound N6, 2-(2,5-diaminophenoxy)acetonitrile] | <0.001 % of applied compound dose | 99.1 % of applied compound dose | 0.01 % of applied compound dose | 123.7 µg/mL | 55.0 | 10.0 | 19.0 | 50.3 | 20.5 | light colours; also recorded: Rose pink | 15 | 4 | 5 | 5.6 | 13 | 5 | 4 | 7.1 | 5.8 | Brownish black | ΔE (total colour difference to natural hair) (Hair nuance test; Type B (Oxidative)): 8.2; eventual colour of bleached hair, Type B (Hair nuance test): Dark brown; Cumulative amount at 8th hour [2]: 0.0145 μg/cm^2; Recovered in skin outside diffusion area [2]: 0.006 % of applied compound dose; Recovered in skin swabs [2]: 0.04 % of applied compound dose; Recovered on parafilm and in washes [2]: 0.002 % of applied compound dose

Further lines, with some results ahead:

Row | Permeated through skin into receptor [2] | Recovered in donor compartment [2] | Recovered in skin [2] | SMILES | CV75 (concentration affording 75% cell viability), 1 × CV75 (THP-1 cells) | L* (Hair nuance test; Type A (Non-oxidative)) | a* (Hair nuance test; Type A (Non-oxidative)) | b* (Hair nuance test; Type A (Non-oxidative)) | ΔE (total colour difference to natural hair) (Hair nuance test; Type A (Non-oxidative)) | ΔH (difference in colour tone) (Hair nuance test; Type A (Non-oxidative)) | eventual colour of bleached hair, Type A (Hair nuance test) | L* (Hair nuance test; Type B (Oxidative)) | a* (Hair nuance test; Type B (Oxidative)) | b* (Hair nuance test; Type B (Oxidative)) | ΔH (difference in colour tone) (Hair nuance test; Type B (Oxidative)) | L* (Hair nuance test; [3]) | a* (Hair nuance test; [3]) | b* (Hair nuance test; [3]) | ΔE (total colour difference to natural hair) (Hair nuance test; [3]) | ΔH (difference in colour tone) (Hair nuance test; [3]) | eventual colour of bleached hair, Type C (Hair nuance test) | also measured
3 | <0.001 % of applied compound dose | 95.0 % of applied compound dose | 0.06 % of applied compound dose | Nc1ccc(N)c(OCOCO)c1 [Compound N8, ((2,5-diaminophenoxy)methoxy)methanol] | 141 µg/mL | 12 | −1 | 6 | 5.91 | 2.43 | Black | 9 | 0 | −1 | 1.41 | 10 | 0 | 3 | 2.23 | 1.49 | Brown | ΔE (total colour difference to natural hair) (Hair nuance test; Type B (Oxidative)): 2; eventual colour of bleached hair, Type B (Hair nuance test): black colour; solubility at 24 h [1]: 78 to 100 mg/mL (≈ 423 to 543 mM); Solubility [1]: 92 + 3.0 mg/ml; Cumulative amount at 8th hour [2]: 0.00843 μg/cm^2; Cumulative amount comparison of PPD vs derivatives (times less than PPD) [2]: 640; Recovered in skin outside diffusion area [2]: 0.0018 % of applied compound dose; Recovered in skin swabs [2]: 0.02 % of applied compound dose; Recovered on parafilm and in washes [2]: 0.004 % of applied compound dose; recovery at 8 h, 1 % w/v [2]: 95.1 ± 1.3%
4 | <0.001 % of applied compound dose | 97.2 % of applied compound dose | 0.01 % of applied compound dose | CCOCOc1cc(N)ccc1N [Compound N3, 2-(ethoxymethoxy)benzene-1,4-diamine] | 115 µg/mL | 19 | 5 | 4 | 11.6 | 5.8 | Black | 9 | 0 | −1 | 2.0 | 17 | −1 | 2 | 8.1 | 1.4 | Brownish black | eventual colour of bleached hair, Type B (Hair nuance test): black colour; solubility at 24 h [1]: 65 to 72 mg/mL (≈ 357 to 395 mM); Solubility [1]: 65 + 3.6 mg/ml; Cumulative amount at 8th hour [2]: 0.0088 μg/cm^2 and 0.00875 μg/cm^2; Recovered in skin outside diffusion area [2]: 0.004 % of applied compound dose; Recovered in skin swabs [2]: 0.04 % of applied compound dose; Recovered on parafilm and in washes [2]: 0.005 % of applied compound dose; recovery at 8 h, 1 % w/v [2]: 97 ± 1.05%
5 | <0.001 % of applied compound dose | 98.2 % of applied compound dose | 0.04 % of applied compound dose | COCOc1cc(N)ccc1N [Compound N2, 2-(methoxymethoxy)benzene-1,4-diamine] | 72.4 µg/mL | 11 | 1 | −2 | 3.7 | 3.16 | Walnut brown | 9 | 0 | −1 | 2.0 | 21 | 17 | 6 | 21.4 | 17.7 | Black | ΔE (total colour difference to natural hair) (Hair nuance test; Type B (Oxidative)): 2.0; solubility at 24 h [1]: 78 to 100 mg/mL (≈ 464 to 595 mM); Solubility [1]: 90 + 2.6 mg/ml; Cumulative amount comparison of PPD vs derivatives (times less than PPD) [2]: 453.7; Recovered in skin outside diffusion area [2]: 0.0024 % of applied compound dose; Recovered in skin swabs [2]: 0.05 % of applied compound dose; Recovered on parafilm and in washes [2]: 0.004 % of applied compound dose; recovery at 8 h, 1 % w/v [2]: 98 ± 1.33%
